Measured values as given in patent US5736548A, “6-aryl pyrazolo[3,4-D] pyrimidin-4-ones and compositions and method of use thereof” (Sanofi, priority 1997, dated 1998).
Values joined by “and” are separate entries in the source; they are usually repeats but may differ in a detail not shown here. Equal values may be shown once.

How the values were obtained:
[1] = test system: nitroglycerin tolerant spontaneously hypertensive rats; experiment: Reversal of nitroglycerin-induced tolerance in spontaneously hypertensive rats; assay type: in vivo; details: for Percent (%) Reversal of Nitroglycerin-induced Tolerance: intravenously 5-10 minutes prior to nitroglycerin challenge
Procedure: Spontaneously hypertensive rats (17-25 weeks of age) were made nitroglycerin tolerant by repeated administration of high doses of nitroglycerin (100 mg/kg, s.c., 3 times/day for 3 consecutive days). To confirm tolerance challenge doses of nitroglycerin were administered intravenously at doses ranging from 1-300 μg/kg and the maximum change in mean arterial pressure (MAP) for each dose was recorded. Groups of tolerant rats were pretreated with the compounds of the invention (tolerant pretreated group) or with vehicle (0.05N NaOH) (tolerant vehicle pretreated group) intravenously 5-10 minutes prior to administration of challenge doses of nitroglycerin. The administration of challenge doses of nitroglycerin to non-tolerant rats (the non-tolerant group) caused a dose-dependent decrease in MAP of between 10 to 40 mm Hg. […] The area under the dose-MAP curve was calculated for the non-tolerant group and for the tolerant vehicle pretreated group and the tolerant pretreated group. The percent reversal of nitrate-inducedtolerance was calculated as follows:
Percent Reversal=(AUCtol -pretreated-AUCtol-veh)/(AUCnontol
AUCnontol =the area under the dose-MAP curve for the non-tolerant group.
AUCtol-veh =the area under the dose-MAP curve for the tolerant vehicle pretreated group.
AUCtol-pretreated =the area under the dose-MAP curve for the tolerant pretreated group.
The following table summarizes the results obtained from the testing of representative compounds of the invention.

[2] = test system: Spontaneously hypertensive rats (SHR); experiment: Antihypertensive activity in conscious spontaneously hypertensive rats (mean arterial pressure); assay type: in vivo; details: Rattus norvegicus, 5 min, po
[3] = test system: Spontaneously hypertensive rats (SHR); experiment: as above; assay type: in vivo; details: Rattus norvegicus, 5 min, SHR iv
Procedure: After a 2 day recovery from surgery, three baseline blood pressure measurements were made at 5 min intervals in conscious SHR. Compounds to be tested or vehicle were then administered intravenously in a dose-dependent manner (0.3-10 mg base/kg) while arterial pressure was recorded continuously on a polygraph. The mean arterial pressure response was measured 5 minutes after the administration of each dose of the test compound and the next dose given in a cumulative dose fashion. The response to each dose of the test compound was calculated as the difference from the mean of the three baseline measurements.

[4] = biological target: cGMP-PDE V (Homo sapiens, UniProt O76074); experiment: biochemical; design: species or system various animal species and man; details: values separated by / and marked * are separate experimental runs
Procedure: The cGMP-PDE and other PDE isozymes were isolated from cardiovascular tissues (heart and aorta) of various animal species and man by anion-exchange and affinity chromatography as described by Silver et al., Sec. Messeng. Phos. 13:13-25, 1991; PDE activity, in the presence and absence of test compounds was determined essentially as described by Thompson et al., Adv. Cyclic Nucleotide Res. 10:69-92. To determine the potency and selectivity of compounds as PDE inhibitors, compounds are screened for their effect on cyclic nucleotide hydrolysis at 10 μM. […] The IC50 values are calculated from concentration-response curves as described by Tallarida and Murray, Manual of Pharmacologic Calculations with Computer Programs, Procedure 8, Graded Dose-response, pp. 14-19, Springer-Verlag, New York, 1981.

Row | SMILES | Percent (%) Reversal of Nitroglycerin-induced Tolerance ([1]; 0.3 mg/kg) [%] | change in vivo at 30 mg/kg [2] [%] | ED25 [3] [mg/kg] | change in vivo at 3 mg/kg ([3]; 5 minutes after dose) [%] | change in vivo at 10 mg/kg ([3]; 5 minutes after dose) [%] | IC50 [4] | change in vivo at 0.3 mg/kg ([3]; 0.3 mg/kg, 5 minutes after dose) [%] | change in vivo at 1 mg/kg ([3]; 5 minutes after dose) [%] | change in vivo at 10 mg/kg ([2]; 10 mg/kg) [%] | Percent (%) Reversal of Nitroglycerin-induced Tolerance ([1]; 1.0 mg/kg) [%] | hypotensive response to nitroglycerin challenge, tolerant vehicle pretreated group (in words) ([1]; tolerant rats, vehicle pretreated, nitroglycerin 1-300 μg/kg iv)
1 | CCc1nn(C2CCCC2)c2nc(-c3ccc(-n4ccnc4)cc3)[nH]c(=O)c12 [8 (a), 1-cyclopentyl-3-ethyl-6-[4-(1-imidazolyl)phenyl]-pyrazolo-[3,4-d] pyrimidin-4-one 1/2 hydrate] | 5 | -81 | 5.7 | -20 | -35 | 410 nM and 430 nM |  |  |  |  | 
2 | CCc1[nH]n(C2CCCC2)c2nc(-c3cccc(OCCN4CCOCC4)c3)nc(=O)c1-2 [13 (b), 1-cyclopentyl-3-ethyl-6-[3-[2-(4-morpholinyl)ethoxy]phenyl]-pyrazolo[3,4-d]pyrimidin-4-one] | 58 | -58 | 9.5 | -19 |  | 107 nM | -11 | -14 |  |  | 
3 | CCc1nn(C2CCCC2)c2nc(-c3ccc(OCCN4CCOCC4)c(OCCN4CCOCC4)c3)[nH]c(=O)c12 [25 (b), 1-cyclopentyl-3-ethyl-6-[3,4-[2-(4-morpholinyl)ethoxy]phenyl]pyrazolo[3,4-d]pyrimidin-4-one] |  |  | 4.5 | -27 | -38 | 14 nM and 51 nM |  | -18 | -18 |  | 
4 | CCCOc1ccccc1-c1nc2n(C3CCCC3)[nH]c(CC)c-2c(=O)n1 [Example 6, 1-cyclopentyl-3-ethyl-6-(2-propoxyphenyl)-pyrazolo[3,4-d]pyrimidin-4-one] |  |  |  |  | -1 | 1.6 nM |  |  |  | 49 | 
5 | CCc1[nH]n(C2CCCC2)c2nc(-c3cccc(OCC(=O)O)c3)nc(=O)c1-2 [Example 21, 1-cyclopentyl-3-ethyl-6-[3-(carboxymethoxy)phenyl]pyrazolo[3,4-d]pyrimidin-4-one] |  |  |  |  | -1 | 93 nM |  |  |  |  | 
6 | O=[N+]([O-])OCC(CO[N+](=O)[O-])O[N+](=O)[O-] [nitroglycerin, reference compound] |  |  |  |  |  |  |  |  |  |  | significant reduction of the hypotensive response
